Reference: paper PMC3016232 (Cancer Chemotherapy and Pharmacology, 2010)
Each block holds one compound with its values, some of them ahead of it.

What was measured:
clinical = assay type: in vivo, human
[1] = assay type: in vivo, human
UGT1A = assay: Formation of SN-38G from SN-38 in pooled human liver microsomes; assay type: in vitro ADME; conditions: SN-38 5 μM, 30 min, microsomal protein 0.8 mg/mL
UGT1A1 mRNA = UGT1A1 mRNA levels in HCT116 cells by quantitative RT-PCR; assay type: cell-based, human; conditions: HCT 116 cells; methimazole 25–100 μM; up to ~48 h
[2] = mean of the courses with or without methimazole, plasma
[3] = courses with methimazole, plasma
[4] = courses without methimazole, plasma

Structure (SMILES): CCc1c2c(nc3ccc(OC(=O)N4CCC(NCCCCC(=O)O)CC4)cc13)-c1cc3c(c(=O)n1C2)COC(=O)C3(O)CC (centres unmarked) [APC, 7-Ethyl-10-[4-N-(5-aminopentanoic acid)-1-piperidino]-carbonyloxy-camptothecin]
mean exposure (AUC) to APC (clinical; [2]): 3,018 ng × h/mL

Structure (SMILES): CCc1c2c(nc3ccc(OC(=O)N4CCC(N)CC4)cc13)-c1cc3c(c(=O)n1C2)COC(=O)[C@]3(O)CC [NPC, 7-Ethyl-10-[4-amino-1-piperidino]-carbonyloxycamptothecin]
mean exposure (AUC) to NPC (clinical; [2]): 32.3 ng·h/mL

Structure (SMILES): CCc1c2c(nc3ccc(O)cc13)-c1cc3c(c(=O)n1C2)COC(=O)[C@]3(O)CC [SN-38, 7-Ethyl-10-hydroxy camptothecin]
mean relative extent of glucuronidation (ratio of SN-38G over SN-38) (clinical; courses with methimazole): 10.1
mean SN-38 AUC (clinical; [3]): 125 ng·h/mL
mean relative extent of glucuronidation (ratio of SN-38G over SN-38) (clinical; courses without methimazole): 6.85
mean SN-38 AUC (clinical; [4]): 110 ng·h/mL

Structure (SMILES): CCc1c2c(nc3ccc(O[C@@H]4O[C@H](C(=O)O)[C@@H](O)[C@H](O)[C@H]4O)cc13)-c1cc3c(c(=O)n1C2)COC(=O)[C@]3(O)CC [SN-38G]
mean SN-38G AUC (clinical; [3]): 1,255 ng × h/mL
mean SN-38G AUC (clinical; [4]): 753 ng·h/mL

AUC (clinical; male, human, in vivo): 16100 ng·h/mL
mean absolute neutrophil count nadir ([1]; mean of all courses): 4.2e+09 L⁻¹
Structure (SMILES): CCc1c2c(nc3ccc(OC(=O)N4CCC(N5CCCCC5)CC4)cc13)-c1cc3c(c(=O)n1C2)COC(=O)[C@]3(O)CC [irinotecan]
Irinotecan-related toxicity ([1]; all courses): mild

Structure (SMILES): CC(=O)N1CCN(c2ccc(OCC3COC(Cn4ccnc4)(c4ccc(Cl)cc4Cl)O3)cc2)CC1 (centres unmarked) [ketoconazole]
reduction of SN-38G formation (UGT1A; ketoconazole 25 μM): 43%

Structure (SMILES): Cn1cc[nH]c1=S [methimazole]
induction of UGT1A1 mRNA levels compared to untreated control cells (UGT1A1 mRNA): 15–18 fold
effect on SN-38G formation (UGT1A; methimazole 37.5 μM): did not decrease
